{"source": "patent US20180235234A1", "about": "“COMPOSITIONS COMPRISING A BIOLOGICAL CONTROL AGENT AND AN INSECTICIDE” (priority 2012, published 2018)", "type_in_all_cases": "in vivo", "key": {"[1]": {"system": "Myzus persicae", "assay": "Myzus persicae spray test (MYZUPE), Chinese cabbage leaf disks", "settings": "mortality", "protocol": "(§1) For all examples the efficiencies of the compositions comprising at least one BCA and at least one specific insecticide has been determined by the “Colby-formula”. The expected efficacy of a given combination of two compounds is calculated as follows (see Colby, S. R., “Calculating Synergistic and antagonistic Responses of Herbicide Combinations”, Weeds 15, pp. 20-22, 1967): If • X is the efficacy expressed in % mortality of the untreated control for test compound A at a concentration of m ppm respectively m g/ha, • Y is the efficacy expressed in % mortality of the untreated control for test compound B at a concentration of n ppm respectively n g/ha, • E is the efficacy expressed in % mortality of the untreated control using the mixture of A and B at m and n ppm respectively m and n g /ha, then\n(§2) If the observed insecticidal efficacy of the combination is higher than the one calculated as “E”, then the combination of the two compounds is more than additive, i.e., there is a synergistic effect.\nMyzus persicae—Spray Test (MYZUPE)\n(§3) To produce a suitable preparation of active compound, 1 part by weight of active compound is mixed with the stated amount of solvent and emulsifier, and the concentrate is diluted with emulsifier-containing water to the desired concentration. To produce a suitable preparation of a spore suspension the spores are diluted with emulsifier-containing water to the desired concentration.\nChinese cabbage (Brassica pekinensis) leaf—disks infected with all instars of the green peach aphid (Myzus persicae), are sprayed with a preparation of the active ingredient of the desired concentration.\nAfter the specified period of time, mortality in % is determined. 100% means all aphids have been killed; 0% means none of the aphids have been killed. The mortality values determined thus are recalculated using the Colby-formula (see above)."}, "[2]": {"system": "Spodoptera frugiperda", "assay": "Spodoptera frugiperda spray test, cotton leaves", "settings": "mortality", "protocol": "(§4) Spodoptera frugiperda—Spray Test\nTo produce a suitable preparation of active compound, 1 part by weight of active compound was mixed with the stated amount of solvent and was diluted with water, containing an emulsifier concentration of 1000 ppm, to the desired concentration. To produce a suitable preparation of a spore suspension the spores were diluted with emulsifier-containing water to the desired concentration. Further test concentrations were prepared by dilution with emulsifier-containing water. Ammonium salt and/or penetration enhancer in a dosage of 1000 ppm were added if necessary.\nCotton leaves (Gossypium hirsutum) were treated by being sprayed with the preparation of the active compound of the desired concentration and were infested with caterpillars of the fall army worm (Spodoptera frugiperda).\nAfter the specified period of time % mortality was determined. 100% means all the caterpillars were killed, and 0% means none of the caterpillars were killed."}, "[3]": {"system": "Spodoptera frugiperda", "assay": "Spodoptera frugiperda spray test, maize leaf sections", "settings": "mortality", "protocol": "as §1, §2, §4\nas §3, with “preparation of the active compound,” for “preparation of active compound,”\nMaize (Zea mais) leaf sections are sprayed with a preparation of the active ingredient of the desired concentration. Once dry, the leaf sections are infested with fall armyworm larvae (Spodoptera frugiperda).\nAfter the specified period of time, mortality in % is determined. 100% means all caterpillars have been killed and 0% means none of the caterpillars have been killed. The mortality values determined thus are recalculated using the Colby-formula (see above)."}, "[4]": {"system": "Aphis gossypii", "assay": "Aphis gossypii spray test, cotton leaves", "settings": "2 ppm; mortality", "protocol": "as §1, §2\nAphis gossypii—Spray Test […]\nAfter the specified period of time, the mortality in % is determined. […] The mortality values determined thus are recalculated using the Colby-formula (see above)."}, "[5]": {"system": "Phaedon cochleariae", "assay": "Phaedon cochleariae spray test, Chinese cabbage leaf disks", "settings": "0.16 g ai/ha; mortality", "protocol": "as §1, §2\nPhaedon cochleariae—Spray Test […]\nAfter the specified period of time, mortality in % is determined. […] The mortality values determined thus are recalculated using the Colby-formula (see above)."}}, "data": [{"compound": "CC1(C)[C@H](C(=O)O[C@H](C#N)c2cccc(Oc3ccccc3)c2)[C@@H]1C=C(Br)Br", "note": "[Deltamethrin (I116), Deltamethrin]", "values": [{"measurement": "Efficacy in % after 6 d", "setting": "[1]; 0.032 g/ha", "result": 0, "unit": "%"}]}, {"compound": "Cc1c(COC(=O)[C@@H]2[C@H](/C=C(\\Cl)C(F)(F)F)C2(C)C)cccc1-c1ccccc1", "note": "(racemic) [Bifenthrin]", "values": [{"measurement": "Efficacy in % after 3 days", "setting": "[2]; 0.5 ppm", "result": 0, "unit": "%"}, {"measurement": "Efficacy in % after 6 days", "setting": "[2]; 0.5 ppm", "result": 20, "unit": "%"}, {"measurement": "Efficacy in % after 2 days", "setting": "[2]; 2 ppm", "result": 20, "unit": "%"}, {"measurement": "Efficacy in % after 2 days", "setting": "[2]; 8 ppm", "result": 60, "unit": "%"}]}, {"compound": "Cc1c(F)c(F)c(COC(=O)[C@@H]2[C@H](/C=C(\\Cl)C(F)(F)F)C2(C)C)c(F)c1F", "note": "(racemic) [Tefluthrin (I134), Tefluthrin]", "values": [{"measurement": "Efficacy in % after 6 d", "setting": "[1]; 2 g/ha", "result": 0, "unit": "%"}, {"measurement": "Efficacy in % after 6 d", "setting": "[3]; 0.4 g ai/ha", "result": 17, "unit": "%"}, {"measurement": "Efficacy in % after 6 d", "setting": "[3]; 4 g ai/ha", "result": 50, "unit": "%"}, {"measurement": "Efficacy in % after 2 d", "setting": "[3]; 10 g ai/ha", "result": 0, "unit": "%"}, {"measurement": "Efficacy in % after 1 d", "setting": "[4]", "result": 15, "unit": "%"}]}, {"compound": "CC1(C)C(C=C(Cl)Cl)C1C(=O)OC(C#N)c1ccc(F)c(Oc2ccccc2)c1", "note": "(stereo not drawn) [ß-Cyfluthrin (I106), beta-Cyfluthrin]", "values": [{"measurement": "Efficacy in % after 1 d", "setting": "[1]; 0.16 g/ha", "result": 0, "unit": "%"}, {"measurement": "Efficacy in % after 6 d", "setting": "[1]; 0.16 g/ha", "result": 0, "unit": "%"}, {"measurement": "Efficacy in % after 6 d", "setting": "[1]; 2 g/ha", "result": 0, "unit": "%"}, {"measurement": "Efficacy in % after 6 d", "setting": "[5]", "result": 0, "unit": "%"}, {"measurement": "Efficacy in % after 6 d", "setting": "[3]; 0.16 g ai/ha", "result": 0, "unit": "%"}, {"measurement": "Efficacy in % after 6 d", "setting": "[3]; 0.4 g ai/ha", "result": 33, "unit": "%"}]}]}
